Like-named read-outs stand apart in the source and are kept apart here.
Test: Pharmacokinetics in Sprague Dawley rats (plasma and brain concentrations, PK parameters)
Type: in vivo
Conditions: for half-life: read-out: T1/2 (converted)
Description: Pharmacokinetics for I-127, I-172 and I-210 were determined in Sprague Dawley rats or CD-1 mice by dosing intravenous (IV), subcutaneous (SC) or per oral (PO) using facility SOPs and sampling plasma at required time points. Species, formulation, route of administration and time points samples are listed below for each compound.
Compounds were extracted from plasma, injected on reverse phase HPLC, eluted with a gradient from 5% to 95% acetonitrile in water and quantified by mass spectrometry with internal standard. Data are expressed in ng compound per mL of plasma.

[1] = Sprague Dawley, rat, plasma, po, 10 mg/kg, Sprague Dawley rat, po 10 mg/kg, plasma, Rat 4, read-out: Concentration Rat 4
[2] = Sprague Dawley, rat, plasma, po, 10 mg/kg, Sprague Dawley rat, po 10 mg/kg, plasma, Rat 5, read-out: Concentration Rat 5
[3] = Sprague Dawley, rat, plasma, po, 10 mg/kg, Sprague Dawley rat, po 10 mg/kg, plasma, Rat 6, read-out: Concentration Rat 6
[4] = Sprague Dawley, rat, plasma, po, 10 mg/kg, Sprague Dawley rat, po 10 mg/kg, plasma, mean of 3 rats, read-out: Concentration Mean
[5] = Sprague-Dawley, rat, plasma, iv, 3 mg/kg, Sprague Dawley rat, iv 3 mg/kg, plasma, Rat 1, read-out: Concentration Rat 1
[6] = Sprague-Dawley, rat, plasma, iv, 3 mg/kg, Sprague Dawley rat, iv 3 mg/kg, plasma, Rat 2, read-out: Concentration Rat 2
[7] = Sprague-Dawley, rat, plasma, iv, 3 mg/kg, Sprague Dawley rat, iv 3 mg/kg, plasma, Rat 3, read-out: Concentration Rat 3
[8] = Sprague-Dawley, rat, plasma, iv, 3 mg/kg, Sprague Dawley rat, iv 3 mg/kg, plasma, mean of 3 rats, read-out: Concentration Mean

## O=C1CCC(N2C(=O)c3cccc(NCCOCCOCCNCc4ccc(-n5cc(NC(=O)c6coc(-c7ccnc(NCC8CC8)c7)n6)c(C(F)F)n5)cc4)c3C2=O)C(=O)N1 (stereo not drawn) [I-210, 2-[2-(Cyclopropylmethylamino)-4-pyridyl]-N-[3-(difluoromethyl)-1-[4-[[2-[2-[2-[[2-(2,6-dioxo-3-piperidyl)-1,3-dioxoisoindolin-4-yl]amino]ethoxy]ethoxy]ethylamino]methyl]phenyl]pyrazol-4-yl]oxazole-4-carboxamide]
Sprague Dawley, rat, plasma, po, 10 mg/kg, Rat (Sprague Dawley) po 10 mg/kg, Mean, read-out: AUClast
  AUC(0-t): 15.2 ng·h/mL
Sprague Dawley, rat, plasma, po, 10 mg/kg, Rat (Sprague Dawley) po 10 mg/kg, Mean, read-out: Cmax
  Cmax: 2.91 ng/mL
Sprague Dawley, rat, plasma, po, 10 mg/kg, Rat (Sprague Dawley) po 10 mg/kg, Mean, read-out: MRTInf_obs
  MRT inf: 8.9 h
Sprague Dawley, rat, plasma, po, 10 mg/kg, Rat (Sprague Dawley) po 10 mg/kg, Mean
  half-life: 4.88 h
Sprague Dawley, rat, plasma, po, 10 mg/kg, Rat (Sprague Dawley) po 10 mg/kg, individual Rat 4-6, read-out: MRTInf_obs
  MRT inf: 7.27 h
Sprague Dawley, rat, plasma, po, 10 mg/kg, Rat (Sprague Dawley) po 10 mg/kg, individual Rat 4-6
  half-life: 3.72 h
[1]
  concentration at 0.25 h: 0.716 ng/mL
  concentration at 0.5 h: 0.914 ng/mL
  concentration at 1 h: 1.39 ng/mL
  concentration at 2 h: 1.55 ng/mL
  concentration at 4 h: 3.5 ng/mL
  concentration at 8 h: 1.66 ng/mL
[2]
  concentration at 0.25 h: 0.359 ng/mL
  concentration at 0.5 h: 0.366 ng/mL
  concentration at 1 h: 0.438 ng/mL
  concentration at 2 h: 2.39 ng/mL
  concentration at 4 h: 4.02 ng/mL
  concentration at 8 h: 2.46 ng/mL
[3]
  concentration at 0.25 h: 0.3 ng/mL
  concentration at 0.5 h: 0.377 ng/mL
  concentration at 1 h: 0.426 ng/mL
  concentration at 2 h: 0.737 ng/mL
  concentration at 4 h: 1.2 ng/mL
  concentration at 8 h: 0.71 ng/mL
[4]
  concentration at 0.25 h: 0.458 ng/mL
  concentration at 0.5 h: 0.552 ng/mL
  concentration at 1 h: 0.75 ng/mL
  concentration at 2 h: 1.56 ng/mL
  concentration at 4 h: 2.91 ng/mL
  concentration at 8 h: 1.61 ng/mL
Sprague-Dawley, rat, brain, iv, 3 mg/kg, Rat (Sprague Dawley) iv 3 mg/kg (IVB), brain, Group 1, Group 2, detected value multiplied by 3, read-out: brain Actual Conc.
  concentration at 4 h: 42.6 ng/g
Sprague-Dawley, rat, brain, iv, 3 mg/kg, Rat (Sprague Dawley) iv 3 mg/kg (IVB), brain, Mean, read-out: brain Actual Conc.
  concentration at 4 h: 39.9 ng/g
Sprague-Dawley, rat, plasma, iv, 3 mg/kg, Sprague Dawley rat, iv 3 mg/kg, Rat 1, read-out: MRTInf_obs Rat 1
  MRT inf: 3.26 h
Sprague-Dawley, rat, plasma, iv, 3 mg/kg, Sprague Dawley rat, iv 3 mg/kg, Rat 2, read-out: MRTInf_obs Rat 2
  MRT inf: 3.15 h
Sprague-Dawley, rat, plasma, iv, 3 mg/kg, Sprague Dawley rat, iv 3 mg/kg, Rat 3, read-out: MRTInf_obs Rat 3
  MRT inf: 2.92 h
Sprague-Dawley, rat, plasma, iv, 3 mg/kg, Sprague Dawley rat, iv 3 mg/kg, mean of 3 rats, read-out: MRTInf_obs Mean
  MRT inf: 3.11 h
[5]
  concentration at 5 min: 671 ng/mL
  concentration at 0.25 h: 396 ng/mL
  concentration at 0.5 h: 307 ng/mL
  concentration at 1 h: 236 ng/mL
  concentration at 2 h: 141 ng/mL
  concentration at 4 h: 86 ng/mL
  concentration at 8 h: 27.5 ng/mL
  concentration at 24 h: 0.454 ng/mL
[6]
  concentration at 5 min: 652 ng/mL
  concentration at 0.25 h: 418 ng/mL
  concentration at 0.5 h: 292 ng/mL
  concentration at 1 h: 232 ng/mL
  concentration at 2 h: 159 ng/mL
  concentration at 4 h: 77.7 ng/mL
  concentration at 8 h: 24.8 ng/mL
  concentration at 24 h: 0.545 ng/mL
[7]
  concentration at 5 min: 700 ng/mL
  concentration at 0.25 h: 469 ng/mL
  concentration at 0.5 h: 312 ng/mL
  concentration at 1 h: 207 ng/mL
  concentration at 2 h: 132 ng/mL
  concentration at 4 h: 64.5 ng/mL
  concentration at 8 h: 20.3 ng/mL
  concentration at 24 h: 0.488 ng/mL
[8]
  concentration at 5 min: 674 ng/mL
  concentration at 0.25 h: 428 ng/mL
  concentration at 0.5 h: 304 ng/mL
  concentration at 1 h: 225 ng/mL
  concentration at 2 h: 144 ng/mL
  concentration at 4 h: 76.1 ng/mL
  concentration at 8 h: 24.2 ng/mL
  concentration at 24 h: 0.496 ng/mL
plasma, Rat (Sprague Dawley) po 10 mg/kg, individual Rat 4-6
  Tmax: 4 h

From patent US10874743B2, “IRAK degraders and uses thereof” (Kymera Therapeutics, Inc., priority 2017, dated 2020)
